Measurements published in US8114425B2, “Process for the production of wood-based materials” (LANXESS Deutschland GmbH, priority 2008, dated 2012).

Assays:
[1] = Investigation of the thermal lability of thiacloprid in NaOH solution; type: physicochemical; settings: NaOH solution pH 13.7
Experimental: 5 g of NaOH were dissolved in 250 ml of distilled water (pH 13.7) and 100 mg of active substance were added. Stirring was then effected for 15 min at different temperatures. The mixture was extracted twice with methylene chloride, neutralized and evaporated down. The residue was weighed and was analysed by NMR, GC, GC-MS or HPLC.

[2] = tested on: Reticulitermes santonensis; assay: Termite resistance compulsory test analogous to EN 117 on OSB boards; type: in vivo; settings: OSB board with 0.00153% thiacloprid, PF glue outer layers, pressed at 190-200° C.; inspection of the surfaces after 8 weeks
Description: Pine chips (strands for the production of OSB) whose fine fraction of <6 mm was removed by means of screening were wetted with phenol-formaldehyde glue (PF, manufacturer Georgia Pacific; type GP 155 C 42; pH about 11-13) for the outer layers and with polymethylene diisocyanate glue (PMDI; manufacturer Bayer; type Desmodur 1520 A 20) for the middle layer. The outer and middle layer chips treated in each case were then wetted with an aqueous solution containing 0.5% of thiacloprid and finally in each case with a wax emulsion (Sasolwax Hydrowax 730). The application was effected in each case using an atomizer (spinning disc system) in a chip mixer. The amount of alkaline binder was 4.5% of PF (or 2.5% of PMDI) solid resin mass fraction in the finished OSB board. This corresponds to about 10% mass fraction, based on the chips used, for the PF glue. The aqueous solution containing thiacloprid was used with 2000 ml/m^3 of finished OSB board. At a density of 650 kg/m^3, this corresponds to 0.00153% of thiacloprid, based on the finished OSB board. The proportion of wax was 0.8% by mass, based on the OSB board. The OSB wood composites produced were produced from 60% of PF glue-coated chips as outer layers and 40% of PMDI glue-coated chips as the middle layer in a press at 500 N/cm^2 and with press plate temperatures of 190-200° C. […]

N#C/N=C1\SCCN1Cc1ccc(Cl)nc1 [thiacloprid]
stability in NaOH solution ([1]; 35° C., 15 min stirring): stable
degradation in NaOH solution ([1]; 75° C., 15 min stirring): 100%
degradation in NaOH solution (in words) ([1]; 75° C., after only 15 min): completely degraded
traces of feeding on test specimen surfaces [2]: No measurable traces of feeding
